Test results published in the NIST ThermoML archive (doi:10.1021/acs.jced.5b01075).

Assay: wn = mass fraction of the nth substance listed
Details: 100 kPa, Liquid; for speed of sound: Frequency=3 MHz, Sing-around technique in a fixed-path interferometer; for mass density: Vibrating tube method

C1CC[C@H]2CCCC[C@@H]2C1 [trans-decahydronaphthalene] + c1ccc2c(c1)CCCC2
Details | mass density [kg/m3] | speed of sound [m/s]
293.15 K, w2 = 0.1003 | 878.7 | 1405
293.15 K, w2 = 0.2002 | 887.89 | 1412.5
293.15 K, w2 = 0.3 | 897.28 | 1420.5
293.15 K, w2 = 0.4002 | 906.9 | 1428.8
293.15 K, w2 = 0.5 | 916.67 | 1437.7
293.15 K, w2 = 0.6 | 926.69 | 1446.9
293.15 K, w2 = 0.7 | 936.89 | 1456.8
293.15 K, w2 = 0.8 | 947.32 | 1467
293.15 K, w2 = 0.8999 | 957.95 | 1477.9
303.15 K, w2 = 0.1003 | 871.18 | 1364.8
303.15 K, w2 = 0.2002 | 880.33 | 1372.4
303.15 K, w2 = 0.3 | 889.67 | 1380.5
303.15 K, w2 = 0.4002 | 899.23 | 1388.9
303.15 K, w2 = 0.5 | 908.96 | 1397.9
303.15 K, w2 = 0.6 | 918.92 | 1407.2
303.15 K, w2 = 0.7 | 929.09 | 1417.2
303.15 K, w2 = 0.8 | 939.47 | 1427.6
303.15 K, w2 = 0.8999 | 950.07 | 1438.6
313.15 K, w2 = 0.1003 | 863.68 | 1325.3
313.15 K, w2 = 0.2002 | 872.76 | 1333.1
313.15 K, w2 = 0.3 | 882.05 | 1341.3
313.15 K, w2 = 0.4002 | 891.55 | 1349.9
313.15 K, w2 = 0.5 | 901.24 | 1358.9
313.15 K, w2 = 0.6 | 911.15 | 1368.4
313.15 K, w2 = 0.7 | 921.27 | 1378.4
313.15 K, w2 = 0.8 | 931.61 | 1388.9
313.15 K, w2 = 0.8999 | 942.17 | 1400
323.15 K, w2 = 0.1003 | 856.15 | 1286.7
323.15 K, w2 = 0.2002 | 865.18 | 1294.5
323.15 K, w2 = 0.3 | 874.42 | 1302.8
323.15 K, w2 = 0.4002 | 883.87 | 1311.5
323.15 K, w2 = 0.5 | 893.51 | 1320.7
323.15 K, w2 = 0.6 | 903.37 | 1330.2
323.15 K, w2 = 0.7 | 913.45 | 1340.4
323.15 K, w2 = 0.8 | 923.75 | 1350.9
323.15 K, w2 = 0.8999 | 934.26 | 1362
333.15 K, w2 = 0.1003 | 848.6 | 1248.7
333.15 K, w2 = 0.2002 | 857.58 | 1256.7
333.15 K, w2 = 0.3 | 866.77 | 1265.1
333.15 K, w2 = 0.4002 | 876.17 | 1273.9
333.15 K, w2 = 0.5 | 885.76 | 1283.1
333.15 K, w2 = 0.6 | 895.58 | 1292.7
333.15 K, w2 = 0.7 | 905.62 | 1303
333.15 K, w2 = 0.8 | 915.87 | 1313.5
333.15 K, w2 = 0.8999 | 926.34 | 1324.8
343.15 K, w2 = 0.1003 | 841 | –
343.15 K, w2 = 0.2002 | 850 | –
343.15 K, w2 = 0.3 | 859.1 | –
343.15 K, w2 = 0.4002 | 868.3 | –
343.15 K, w2 = 0.5 | 878 | –
343.15 K, w2 = 0.6 | 887.9 | –
343.15 K, w2 = 0.7 | 897.7 | –
343.15 K, w2 = 0.8 | 907.9 | –
343.15 K, w2 = 0.8999 | 918.5 | –
353.1 K, w2 = 0.1003 | 833.2 | –
353.1 K, w2 = 0.2002 | 842.3 | –
353.1 K, w2 = 0.3 | 851.4 | –
353.1 K, w2 = 0.4002 | 860.6 | –
353.1 K, w2 = 0.5 | 870.2 | –
353.1 K, w2 = 0.6 | 880 | –
353.1 K, w2 = 0.7 | 889.8 | –
353.1 K, w2 = 0.8 | 900 | –
353.1 K, w2 = 0.8999 | 910.5 | –
363.1 K, w2 = 0.1003 | 825.5 | –
363.1 K, w2 = 0.2002 | 834.6 | –
363.1 K, w2 = 0.3 | 843.5 | –
363.1 K, w2 = 0.4002 | 852.8 | –
363.1 K, w2 = 0.5 | 862.3 | –
363.1 K, w2 = 0.6 | 872.1 | –
363.1 K, w2 = 0.7 | 881.8 | –
363.1 K, w2 = 0.8 | 892 | –
363.1 K, w2 = 0.8999 | 902.4 | –
373.1 K, w2 = 0.1003 | 817.9 | –
373.1 K, w2 = 0.2002 | 826.9 | –
373.1 K, w2 = 0.3 | 835.8 | –
373.1 K, w2 = 0.4002 | 844.9 | –
373.1 K, w2 = 0.5 | 854.5 | –
373.1 K, w2 = 0.6 | 864.2 | –
373.1 K, w2 = 0.7 | 874 | –
373.1 K, w2 = 0.8 | 883.9 | –
373.1 K, w2 = 0.8999 | 894.4 | –
